Measured values taken from PMC7037731, “Synthesis, Anticancer Activity, and Preliminary Pharmacokinetic Evaluation of 4,4-Disubstituted Curcuminoid 2,2-bis(Hydroxymethyl)Propionate Derivatives” (Molecules, 2020).
≈ marks a conversion by molar mass, not a printed value.

Assays:
[1] = Preliminary pharmacokinetic evaluation of 2 in rat (LC-MS of serum); assay type: in vivo, Sprague-Dawley rats; conditions: for time of maximum blood content: LC signal in serum
Protocol: Male Sparague-Dawley rat (420 g) from National Laboratory Animal Center, Taipei, Taiwan were maintained under the regulations of the Institutional Animal Care and Use Committee of the National Health Research Institutes, Taiwan. The animal studies were supervised under the Institutional Animal Care and Use Committee, China Medical University, Taichung, Taiwan with a protocol number ([…]-2018-278). Rat was fasted for 16 h before dosing. Compound 2 was dissolved in aqueous solution (5% ethanol and 10% Tween80 in 85% saline) and administrated via oral gavage at a dosage of 100 mg/kg. Blood samples were collected at selected time points (5, 10, 20, 30, 60, 120, 240, 360, 480 min) post dose and centrifuged at 10,000× g for 15 min to provide serum samples, which were stored at −80 °C until subsequent sample extraction.
Methods for the preparation of 2, 2m, 18, 19, 20 and 21 serum sample are delineated as follows. 50 μL of acetate buffer (pH 5.0), 50 μL of ascorbic acid (200 mg/mL), and 50 μL of 0.1 N HCl solution was added into 100 μL of serum which was collected at different time points). The resulting mixture was partitioned with 250 μL of ethyl acetate (containing 5.0 μg/mL of butyl paraben as the internal standard). After centrifuging at 10,000× g for 15 min, the upper organic layer was separated and dried under nitrogen gas to provide the crude sample, which was diluted with an appropriate volume of acetonitrile for LC-MS analysis.
The amount of 22 and 23 were analyzed by the serum samples before and after treatment with enzyme solution. The procedure for enzyme treatment is shown as follows. 100 μL of serum was treated with enzyme solution (50 μL; containing 1000 units/mL of sulfatase and 39861 units/mL of β-glucuronidase in pH 5.0 acetate buffer), 50 μL of 0.1 N HCl solution and 50 μL of ascorbic acid (200 mg/mL) in the light protected tubes at 37 °C. For optimal hydrolysis efficiency, the incubation time was decided as 2 h based on a previous study. The mixture was then partitioned with 250 μL of ethyl acetate (containing 5.0 μg/mL of butyl paraben as the internal standard). After centrifuging at 10,000× g for 15 min, the upper organic layer was separated and dried under nitrogen gas to provide the crude sample, which was diluted with an appropriate volume of acetonitrile for LC analysis.
All samples obtained from in vivo pharmacokinetic studies were assayed using LC-MS for the analysis of 2 and the corresponding metabolites. The Waters ACQUITY UPLC I-Class system (Waters Corp., Milford, MA, USA) was utilized. System control and all of the mass spectrometry data were acquired and analyzed using UNIFI software (Waters Corp.). For sample separation, the LC was equipped with an Inertsil ph-3 (50 × 2.1 mm, 2 μm particle size) RPLC column (GL Sciences Inc. Tokyo, Japan) in which the column temperature was held at 35 °C, injection volume was 7.5 μL, and the flow rate of the mobile phase was 200 μL/min. The elution started from 50% mobile phase A (ultrapure water + 0.1% formic acid) and 50% mobile phase B (100% methanol + 0.1% formic acid), held at 50% B for 0.5 min, raised to 95% B in 5.5 min, held at 95% B for 1 min, and then lowered to 50% B in 1 min. Before sample injection, the column was equilibrated by pumping 50% B for 4 min. The analysis of target compounds for all samples was performed by using a Waters Vion IMS QTof mass spectrometer. Data were acquired in the electrospray ionization (ESI) positive ion MS^E mode with range of m/z 100–1000 and 0.5 s scan time. Parameters were set as capillary voltage of 2.5 kV, source temperature of 100 °C, desolvation temperature at 250 °C, cone gas maintained at 10 L/h, desolvation gas maintained at 600 L/h. The acquired m/z and isotope pattern were processed by UNIFI software to illustrate chromatogram, and the amounts of compound was calculated with the integrated peak area of signals.

[2] = Visible signs of toxicity and behavioral changes in xenograft mice; assay type: in vivo; conditions: 50, 100, 150 mg/kg p.o. daily, 30 days, vs control groups
Protocol: (§1) The therapeutic effect of 2 was evaluated on HCT-116 colon tumor xenograft bearing nude mice. The oral administration of 2 at doses of 50, 100, or 150 mg/kg bw per day were performed after tumors reached approximately 100 mm^3 and continued for 30 consecutive days. 5-Fluorouracil treatment (30 mg/kg bw, i.p., QOD) was used as a positive control. […] There was a clear dose- and time-dependent inhibitory effect on tumor size in the other two groups, in which at 50 and 150 mg/kg doses the volume of the HCT-116 colon tumor was reduced to 73% and 40% of the control, respectively (Figure 2). The body weight of the mice was recorded prior to dosing every 3 d, and the average body weight of each group is depicted in Figure 3. Otherwise, they were monitored for visible signs of toxicity and behavioral changes 1 h after each administration.
Male nu/nu mice (5 weeks old) from National Laboratory Animal Center (Taipei, Taiwan) were maintained under the procedures and guidelines provided by the Institutional Animal Care and Use Committee of the National Health Research Institutes (Taipei, Taiwan). […] Tumor size and mouse body weight were measured once every 3 days, and tumor volume (mm^3) was calculated using the equation: length × (width)^2 × 0.5. […]

[3] = tested on: HCT-116 colon tumor xenograft; assay: In vivo antitumor activity, HCT-116 colon tumor xenograft bearing nude mice; set-up: species or system nu/nu mice; conditions: 30 days
Protocol: as §1
Male nu/nu mice (5 weeks old) from National Laboratory Animal Center (Taipei, Taiwan) were maintained under the procedures and guidelines provided by the Institutional Animal Care and Use Committee of the National Health Research Institutes (Taipei, Taiwan). All experiments were supervised under the Institutional Animal Care and Use Committee, China Medical University, Taichung, Taiwan with a protocol number ([…]-2018-278). HCT-116 colon cancer cells (5 × 10^6 cells per mouse) were suspended in 0.1 mL of Matrigel solution (50% v/v Matrigel in PBS) and inoculated into the mammary fat pads of the mice. When the tumor size reached 100 mm^3, the tumor-bearing mice were randomly divided into four groups for treating with vehicle (5% ethanol and 10% tween 80 in 85% saline, 0.1 mL) and 2 (p.o. 50, 100 and 150 mg/kg/day body weight) respectively. Compounds was administered via oral route daily for 30 days. 5-Fluorouracil-treated group (i.p. 30 mg/kg) is the positive control. Tumor size and mouse body weight were measured once every 3 days, and tumor volume (mm^3) was calculated using the equation: length × (width)^2 × 0.5. At the end of experiments, mice were sacrificed.

MDA-MB-231 [4] = assay: MTT anti-proliferative assay, MDA-MB-231; assay type: cell-based; conditions: Homo sapiens, 48 h treatment, MTT, mean ± SD of at least three experiments, read-out: IC50 (M)/ 48 h MDA-MB-231
Protocol: (§2) These compounds, along with all newly synthesized compounds, were screened for anti-proliferative activity against the same TNBC and colon cancer cell lines.
(§3) Cell viability was evaluated by measuring the reduction in MTT to yield blue formazan. Cells were cultured in 96-well plates, allowed to attach overnight, and then treated with compounds. After treatment, MTT solution (1 mg/mL) was added to each well, and plates were incubated for another 2 h. Medium was removed, blue formazan was dissolved in DMSO, and the absorbance was read at 570 nm by Multiskan Go spectrophotometer (Thermo Scientific, Madison, WI, USA).

[5] = Solubility in aqueous dosing vehicle; assay type: physicochemical; conditions: aqueous with cosolvent or surfactant or cyclodextrin, 5% ethanol, 10% Tween 80, 85% saline, read-out: maximum solubility in aqueous vehicle
Text: Subsequently, the latter would be converted into glucuronide 22 and sulfate 23 through the phase II metabolism conjugation of hydrogenated products 18, 19, 20, and 21 via the phase I metabolic pathway (Scheme 6). To verify our assumptions, the preliminary pharmacokinetic evaluation of 2 was executed.

HCT-116 = assay: MTT anti-proliferative assay, HCT-116; assay type: cell-based; conditions: Homo sapiens, 48 h treatment, MTT, mean ± SD of at least three experiments, read-out: IC50 (M)/ 48 h HCT-116
Protocol: as §2, §3

MDA-MB-231 [6] = conditions: MDA-MB-231 in vitro and in vivo; cited from earlier work
[7] = Chemical stability on storage; assay type: physicochemical; conditions: storage at 4 °C; DMSO-d6 1 week at room temperature
Text: The low stability of 9 may have been due to self- or cross-hydrolysis, such that the two hydroxyl groups at the C-4 alkyl chains cleaved the ester linkage of the 2,2-bis(hydroxymethyl)propionate group. […] Therefore, we modified the hydroxymethyl group of 9 and were able to produce compounds 10 and 11. To prepare 10, compound 9 was acetylated with acetyl chloride in the presence of Et3N, and the resulting di-acetylation intermediate was hydrolyzed by hydrochloric acid. Compound 11 was obtained with an overall yield of 5% following a similar three-step reaction modified for methylation. The stability of these two products at room temperature may have been due to the conversion of the labile hydroxyl groups of the C-4 alkyl chains of 10 and 11 into non-nucleophilic […] groups, respectively, which prevented degradation.

Structure (SMILES) | time of second highest blood content ([1]; after oral 2 at 100 mg/kg) [min] | time of third highest blood content ([1]; after oral 2 at 100 mg/kg) [min] | time of maximum blood content ([1]; after oral 2 at 100 mg/kg) [min] | plasma stability compared to curcumin ([1]; oral 100 mg/kg) | adverse effects (visible signs of toxicity, behavioral changes) [2] | tumor volume as % of the control ([3]; 50 mg/kg p.o. daily) [%] | tumor volume reduction ([3]; 50 mg/kg p.o. daily, vs control) [%] | tumor volume reduction / tumor inhibition ratio ([3]; 100 mg/kg p.o. daily, vs control) [%] | tumor volume as % of the control ([3]; 150 mg/kg p.o. daily) [%] | tumor volume reduction ([3]; 150 mg/kg p.o. daily, vs control) [%] | IC50 (MDA-MB-231 [4]) [M] | solubility [5] [mg/mL] | IC50 (HCT-116) [M] | potency relative to curcumin (times) (MDA-MB-231 [6]) | chemical stability [7] | melting point [°C] | time from which the metabolite emerged in blood ([1]; after oral 2 at 100 mg/kg) [min]
COc1cc(/C=C/C(=O)C(C)(C)C(=O)/C=C/c2ccc(OC(=O)C(C)(CO)CO)c(OC)c2)ccc1OC(=O)C(C)(CO)CO [Compound 2] | 120 | 360 | 20 | superior plasma stability | No obvious adverse effects | 73 | 27 | 45 | 40 | 60 | 2.25e-06 ± 1e-07 | ~200 (≈ 318 mM) | 3.1e-06 ± 2.9e-07 |  |  |  | 
COc1cc(/C=C/C(=O)/C=C(O)/C=C/c2ccc(OC(=O)C(C)(CO)CO)c(OC)c2)ccc1OC(=O)C(C)(CO)CO [Compound 1, curcumin di-O-2,2-bis(hydroxymethyl)propionate] |  |  |  |  |  |  |  |  |  |  | 3.06e-06 ± 1.8e-07 |  | 6.25e-06 ± 6e-07 | 8 to 10 |  |  | 
COc1cc(/C=C/C(=O)C(CO)(CO)C(=O)/C=C/c2ccc(OC(=O)C(C)(CO)CO)c(OC)c2)ccc1OC(=O)C(C)(CO)CO [Compound 9, [(1E,6E)-4,4-bis(Hydroxymethyl)-3,5-dioxohepta-1,6-diene-1,7-diyl]bis(2-methoxy-4,1-phenylene) bis[3-hydroxy-2-(hydroxymethyl)-2-methylpropanoate]] |  |  |  |  |  |  |  |  |  |  | > 0.0001 |  | > 0.0001 |  | unstable |  | 
COc1cc(/C=C/C(=O)C(C)(C)C(=O)/C=C/c2ccc(O)c(OC)c2)ccc1O [Compound 2m, (1E,6E)-1,7-bis(4-Hydroxy-3-methoxyphenyl)-4,4-dimethylhepta-1,6-diene-3,5-dione] |  |  | 120 |  |  |  |  |  |  |  | 4.17e-06 ± 1.5e-07 |  | 2.17e-06 ± 1.6e-07 |  |  | 104 to 106 | 10
